Measurements from patent publication US6362181B1, “Isoquinolones” (Warner-Lambert Company, priority 1996, dated 2002).
pIC50: −log10 of the molar value. Converted amounts (≈) assume the structure as drawn. Read-outs that look alike come from different tables or passages of the source.

What was measured:
B. subtilis RB1 = experiment: Antibacterial assay, standard microtitration, MIC; assay type: cell-based; details: Gram positive; for MIC: Bacillus subtilis, read-out: Minimum Inhibitory Concentrations, B. subtilis RB1
Method: (§1) The compounds of the present invention were tested against an assortment of gram negative and gram positive organisms using standard microtitration techniques (Cohen, et al., Antimicrob. Agents Chemother., 1985;28:766; Heifetz, et al. Antimicrob. Agents Chemother., 1974;6:124).

E. coli B90 = experiment: Antibacterial assay, standard microtitration, MIC; assay type: cell-based; details: Gram negative; for MIC: Escherichia coli, read-out: Minimum Inhibitory Concentrations, E. coli B90
Method: as §1

E. coli MC4100 = experiment: Antibacterial assay, standard microtitration, MIC; assay type: cell-based; details: Gram negative; for MIC: Escherichia coli, read-out: Minimum Inhibitory Concentrations, E. coli MC4100
Method: as §1

S. aureus 29213 = experiment: Antibacterial assay, standard microtitration, MIC; assay type: cell-based; details: Gram positive; for MIC: Staphylococcus aureus, read-out: Minimum Inhibitory Concentrations, S. aureus 29213
Method: as §1

S. pyogenes C203 = experiment: Antibacterial assay, standard microtitration, MIC; assay type: cell-based; details: Gram positive; for MIC: Streptococcus pyogenes, read-out: Minimum Inhibitory Concentrations, S. pyogenes C203
Method: as §1

relaxed plasmid pBR322 = experiment: DNA intercalation/binding assay; details: pBR322 with calf thymus topoisomerase I, 30 minutes at 37° C.; read-out: Drug Concentration causing 50% Intercalation of DNA
Method: Compounds of the present invention were evaluated for their ability to intercalate/bind to DNA, using the procedure described in Nucleic Acids Research, 1987;15(15):6713. Specifically, 0.2 μg of relaxed plasmid pBR322 (Lucent, Ltd., Leicester, UK) was treated with 2 U of calf thymus topoisomerase I (Gibco/BRL, Gaithersburg, Md.) in buffer I (10 mM Tris-HCl (Ph 7.5), 50 mM KCl, 5 mM MgCl2, 1 mM Na2EDTA, 15 μg/mL bovine serum albumin) in the presence or absence of test compounds. Reaction were incubated for 30 minutes at 37° C.; volumes were typically 30 μL. Reactions were terminated by the addition of sodium dodecylsulfate (SDS) to 1% and proteinase K to 0.5 mg/mL final concentrations. After an additional 30 minutes at 37° C., one-tenth volume of 10×concentrated loading buffer (0.3% bromophenol blue, 16% Ficoll, 10 mM Na2HPO4) was added, and samples were loaded onto horizontal 0.8% agarose gels prepared in TAE buffer. Electrophoresis was at 22 V for 14 hours. Gels were then stained by soaking for 1.5 hours in deionized water containing 0.2 μg/mL of ethidium bromide, followed by destaining in deionized water for an additional 1.5 hours. Gels were examined and photographed following exposure to UV light. The concentration of the drug which induced a 50% change in the DNA by intercalation is represented by an intercalation IC50 and is recorded in Table 4.

E. coli To1C = experiment: Antibacterial assay, standard microtitration, MIC; assay type: cell-based; details: for MIC: Escherichia coli, TO1C, read-out: Minimum Inhibitory Concentrations, E. coli To1C; for Minimum Inhibitory Concentrations, E. coli To1C: Gram negative
Method: as §1

E. coli gyrase = target: T1, E. coli gyrase (Escherichia coli, UniProt P0AES4+P0AES6); experiment: DNA gyrase supercoiling inhibition assay; assay type: biochemical
T1 construct: purchased Lucent, Ltd., Leicester, UK
T1 sequence (P0AES4 whole entry, one chain of several): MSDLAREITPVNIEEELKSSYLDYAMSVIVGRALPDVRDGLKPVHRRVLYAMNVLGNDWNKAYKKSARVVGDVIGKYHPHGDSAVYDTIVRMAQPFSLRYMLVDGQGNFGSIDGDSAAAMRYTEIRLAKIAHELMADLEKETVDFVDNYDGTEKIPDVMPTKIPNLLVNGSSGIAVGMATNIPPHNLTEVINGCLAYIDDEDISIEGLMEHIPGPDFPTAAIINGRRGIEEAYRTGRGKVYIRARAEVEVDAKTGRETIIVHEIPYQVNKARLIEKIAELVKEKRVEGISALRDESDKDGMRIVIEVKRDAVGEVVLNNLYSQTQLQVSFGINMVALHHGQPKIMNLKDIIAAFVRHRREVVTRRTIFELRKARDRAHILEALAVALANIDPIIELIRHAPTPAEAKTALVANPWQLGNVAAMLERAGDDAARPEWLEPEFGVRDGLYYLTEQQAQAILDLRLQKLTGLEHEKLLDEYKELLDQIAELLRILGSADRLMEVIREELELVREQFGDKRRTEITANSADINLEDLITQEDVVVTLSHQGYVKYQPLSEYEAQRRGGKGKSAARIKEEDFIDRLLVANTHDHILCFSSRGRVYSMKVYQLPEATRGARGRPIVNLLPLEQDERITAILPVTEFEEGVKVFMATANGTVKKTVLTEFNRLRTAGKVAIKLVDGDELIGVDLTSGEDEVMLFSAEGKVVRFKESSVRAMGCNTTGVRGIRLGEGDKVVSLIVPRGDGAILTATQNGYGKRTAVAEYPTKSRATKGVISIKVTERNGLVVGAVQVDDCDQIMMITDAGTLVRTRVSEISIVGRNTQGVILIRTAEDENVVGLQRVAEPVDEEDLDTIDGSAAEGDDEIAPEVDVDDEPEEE
Method: The effects of test agents on the activity of DNA gyrase was determined by the supercoiling inhibition assay, following reaction conditions recommended by the enzyme supplier (Lucent, Ltd., Leicester, UK), as follows. Reactions were performed in buffer G (35 mM Tris-HCL (pH 7.5), 24 mM KCl, 4 mM MgCl2, 2 mM DTT, 1.8 mM spermidine, 1 mM ATP, 0.1 mg/mL bovine serum albumin). 0.25 μg of relaxed plasmid pBR322 (Lucent, Ltd., Leicester, UK) was reacted with 1 U E. coli gyrase (Lucent, Ltd., Leicester, UK), in the absence or presence of drugs, for 30 minutes at 37° C. Reactions were stopped by the addition of SDS and proteinase K to respective final concentrations of 1% and 0.5 mg/mL. After an additional 30 minutes at 37° C., one-tenth volume of 10×loading buffer (0.3% bromophenol blue, 16% Ficoll, 10 mM Na2HPO4) was added, and reactions were loaded onto agarose gels and electrophoresed as described above for intercalation assays. The concentration of drug inhibiting 50% of the supercoiling activity of DNA gyrase is given as an IC50 and recorded in Table 2.

E. coli topoisomerase IV = target: T2, E. coli topoisomerase IV (Escherichia coli, UniProt P0AFI2+P20083); experiment: Topoisomerase IV k-DNA decatenation assay; assay type: biochemical
T2 construct: made in house; host or cells: E. coli overexpressing strains
T2 sequence (P0AFI2 whole entry): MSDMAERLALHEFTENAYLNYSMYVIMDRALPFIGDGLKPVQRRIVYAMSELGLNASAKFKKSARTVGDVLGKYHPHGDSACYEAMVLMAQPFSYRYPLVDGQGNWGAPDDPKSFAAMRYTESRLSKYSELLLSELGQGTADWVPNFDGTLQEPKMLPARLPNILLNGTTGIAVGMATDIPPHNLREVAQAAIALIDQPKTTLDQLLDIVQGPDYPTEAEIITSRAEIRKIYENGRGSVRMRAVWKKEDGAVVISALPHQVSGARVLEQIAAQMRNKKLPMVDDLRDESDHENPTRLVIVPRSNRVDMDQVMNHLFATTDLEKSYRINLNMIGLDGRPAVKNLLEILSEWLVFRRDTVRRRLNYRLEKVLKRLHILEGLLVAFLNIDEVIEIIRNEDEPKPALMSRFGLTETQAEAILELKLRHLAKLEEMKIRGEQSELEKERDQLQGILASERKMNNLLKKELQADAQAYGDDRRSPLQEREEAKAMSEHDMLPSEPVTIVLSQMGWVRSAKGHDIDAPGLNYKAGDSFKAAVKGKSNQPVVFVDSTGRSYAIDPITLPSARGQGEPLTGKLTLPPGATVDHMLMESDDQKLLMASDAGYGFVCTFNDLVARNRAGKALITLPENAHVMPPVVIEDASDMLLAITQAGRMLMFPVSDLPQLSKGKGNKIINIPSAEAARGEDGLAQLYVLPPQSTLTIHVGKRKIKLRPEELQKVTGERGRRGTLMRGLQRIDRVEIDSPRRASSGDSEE
T2 sequence (P20083 whole entry): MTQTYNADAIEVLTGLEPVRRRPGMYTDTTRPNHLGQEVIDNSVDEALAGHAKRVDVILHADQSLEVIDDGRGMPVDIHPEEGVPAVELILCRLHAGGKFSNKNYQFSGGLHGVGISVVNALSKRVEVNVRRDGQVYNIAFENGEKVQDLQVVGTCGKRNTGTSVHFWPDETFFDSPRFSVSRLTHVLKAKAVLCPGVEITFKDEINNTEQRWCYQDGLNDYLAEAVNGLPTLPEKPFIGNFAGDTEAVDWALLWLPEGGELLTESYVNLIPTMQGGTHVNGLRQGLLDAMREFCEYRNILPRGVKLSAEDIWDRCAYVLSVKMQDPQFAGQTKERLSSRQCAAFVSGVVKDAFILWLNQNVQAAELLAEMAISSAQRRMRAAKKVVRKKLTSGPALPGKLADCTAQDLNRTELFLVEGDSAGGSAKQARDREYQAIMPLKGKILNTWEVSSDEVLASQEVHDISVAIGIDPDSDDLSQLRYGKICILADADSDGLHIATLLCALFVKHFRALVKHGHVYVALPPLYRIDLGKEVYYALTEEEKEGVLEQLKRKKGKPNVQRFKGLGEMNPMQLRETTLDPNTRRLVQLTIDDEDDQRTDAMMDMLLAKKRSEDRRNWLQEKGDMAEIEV
Method: Topoisomerase IV was purified from E. coli overexpressing strains and the compounds were assayed according to literature conditions (Journal of Biological Chemistry, 1993;268(32):24481). The k-DNA decatenation assay was used. Briefly, reactions were performed in buffer R (40 mM Tris-HCl (pH 7.5), 6 mM MgCl2, 10 mM DTT, 100 mM potassium glutamate, 40 μM ATP, 50 μg/mL bovine serum albumin, 10 mM NaCl). 0.2 μg of kinetoplast DNA (k-DNA; TopoGen, Columbus, Ohio) was incubated with 5 ng of E. coli topoisomerase IV in the presence or absence of test compounds for 10 minutes at 37° C. Subsequently, one-tenth volume of 10×gel loading buffer (0.3% bromophenol blue, 16% Ficoll, 10 mM Na2HPO4) was added, and samples were loaded onto horizontal 0.8% agarose gels prepared with TBE buffer and containing 0.05 μg/mL of ethidium bromide. Electrophoresis was at 70 V for 2 to 4 hours. Gels were then examined by exposure to UV light. The concentration of drug inhibiting 50% of the decantenating activity of Topoisomerase IV is given as an IC50 and recorded in Table 2.

[1] = supercoiling of relaxed pBR322, 30 minutes at 37° C., read-out: DNA Gyrase IC50

Compound: O=C1c2cccc3cc([N+](=O)[O-])cc(c23)C(=O)N1O [Example 1, 2-Hydroxy-5-nitro-benzo[de]isoquinoline-1,3-dione]
- MIC (B. subtilis RB1): 8 mg/L (≈ 31 µM)
- MIC (E. coli B90): 2 mg/L (≈ 7.75 µM)
- MIC (E. coli MC4100): 4 mg/L (≈ 15.5 µM)
- MIC (S. aureus 29213): 8 mg/L (≈ 31 µM)
- MIC (S. pyogenes C203): 32 mg/L (≈ 124 µM)
- pIC50 (relaxed plasmid pBR322): < 4.00

Compound: CC1(CN)CCN(c2c(Cl)cc3c4c(cccc24)C(=O)N(O)C3=O)C1 (stereo not drawn) [Example 89]
- MIC (B. subtilis RB1): 1 mg/L (≈ 2.78 µM)
- MIC (E. coli B90): 1 mg/L (≈ 2.78 µM)
- MIC (E. coli MC4100): 4 mg/L (≈ 11.1 µM)
- MIC (E. coli To1C): 0.5 mg/L (≈ 1.39 µM)
- MIC (S. aureus 29213): 1 mg/L (≈ 2.78 µM)
- MIC (S. pyogenes C203): 2 mg/L (≈ 5.56 µM)
- pIC50 (E. coli gyrase): 5.26

Compound: CCCNC(=O)Nc1cc2c3c(cccc3c1)C(=O)N(O)C2=O [Example 102]
- MIC (B. subtilis RB1): 16 mg/L (≈ 51.1 µM)
- MIC (E. coli B90): 32 mg/L (≈ 102 µM)
- MIC (E. coli MC4100): > 64 mg/L
- MIC (E. coli To1C): 16 mg/L (≈ 51.1 µM)
- MIC (S. aureus 29213): > 64 mg/L
- MIC (S. pyogenes C203): > 64 mg/L
- melting point: > 250 °C

Compound: O=C1c2cccc3c4c(cc(c23)C(=O)N1O)OCO4 [Example 122, 2-Hydroxy-5,6-methylenedioxy-benzo[de]isoquinoline-1,3-dione]
- MIC (B. subtilis RB1): 2 mg/L (≈ 7.78 µM)
- MIC (E. coli B90): 0.5 mg/L (≈ 1.94 µM)
- MIC (E. coli MC4100): 2 mg/L (≈ 7.78 µM)
- MIC (E. coli To1C): 0.5 mg/L (≈ 1.94 µM)
- MIC (S. aureus 29213): 8 mg/L (≈ 31.1 µM)
- MIC (S. pyogenes C203): > 64 mg/L
- pIC50 (E. coli gyrase; [1]): 4.72
- pIC50 (relaxed plasmid pBR322): < 4.00

Compound: NC1CCN(c2c(Cl)cc3c4c(cc([N+](=O)[O-])cc24)C(=O)N(O)C3=O)C1.O=C(O)C(F)(F)F (stereo not drawn) [Example 115]
- Minimum Inhibitory Concentrations, B. subtilis RB1 (B. subtilis RB1): 2.0 µg/mL
- Minimum Inhibitory Concentrations, E. coli B90 (E. coli B90): 0.5 µg/mL
- Minimum Inhibitory Concentrations, E. coli MC4100 (E. coli MC4100): 8.0 µg/mL
- Minimum Inhibitory Concentrations, E. coli To1C (E. coli To1C): 0.5 µg/mL
- Minimum Inhibitory Concentrations, S. aureus 29213 (S. aureus 29213): >64 µg/mL
- Minimum Inhibitory Concentrations, S. pyogenes C203 (S. pyogenes C203): 4.0 µg/mL
- pIC50 (E. coli gyrase; [1]): 6.15
- pIC50 (E. coli topoisomerase IV; read-out: Top IV IC50): 5.05

Compound: O=C1c2cccc3cc(F)cc(c23)C(=O)N1O [Example 11, 5-Fluoro-2-hydroxy-benzo[de]isoquinoline-1,3-dione]
- MIC (B. subtilis RB1): 8 mg/L (≈ 34.6 µM)
- MIC (E. coli B90): 2 mg/L (≈ 8.65 µM)
- MIC (E. coli MC4100): 8 mg/L (≈ 34.6 µM)
- MIC (S. aureus 29213): 64 mg/L (≈ 277 µM)
- MIC (S. pyogenes C203): > 64 mg/L
- pIC50 (relaxed plasmid pBR322): < 4.00

Compound: 6-Hydroximino-2,5-dihydroxy-methyl-benzo[de]isoquinoline-1,3-dione [Example 120]
- Minimum Inhibitory Concentrations, B. subtilis RB1 (B. subtilis RB1): >64 µg/mL
- Minimum Inhibitory Concentrations, E. coli B90 (E. coli B90): 2.0 µg/mL
- Minimum Inhibitory Concentrations, E. coli MC4100 (E. coli MC4100): >64 µg/mL
- Minimum Inhibitory Concentrations, E. coli To1C (E. coli To1C): 1.0 µg/mL
- Minimum Inhibitory Concentrations, S. aureus 29213 (S. aureus 29213): 16 µg/mL
- Minimum Inhibitory Concentrations, S. pyogenes C203 (S. pyogenes C203): 64 µg/mL
- pIC50 (E. coli gyrase; [1]): 4.52
- pIC50 (E. coli topoisomerase IV; k-DNA decatenation, 10 minutes at 37° C., read-out: Top IV IC50): 4.60

Compound: Nc1ccc2c3c(cccc13)C(=O)N(O)C2=O [Example 7, 6-Amino-2-hydroxy-benzo[de]isoquinoline-1,3-dione]
- MIC (B. subtilis RB1): 16 mg/L (≈ 70.1 µM)
- MIC (E. coli B90): 4 mg/L (≈ 17.5 µM)
- MIC (E. coli MC4100): 4 mg/L (≈ 17.5 µM)
- MIC (E. coli To1C): 4 mg/L (≈ 17.5 µM)
- MIC (S. aureus 29213): 8 mg/L (≈ 35.1 µM)
- MIC (S. pyogenes C203): > 64 mg/L
- pIC50 (relaxed plasmid pBR322): < 4.00

Compound: CN1CCN(c2c(Cl)cc3c4c(cccc24)C(=O)N(O)C3=O)CC1 [Example 98]
- MIC (B. subtilis RB1): 8 mg/L (≈ 23.1 µM)
- MIC (E. coli B90): 4 mg/L (≈ 11.6 µM)
- MIC (E. coli MC4100): 32 mg/L (≈ 92.5 µM)
- MIC (E. coli To1C): 4 mg/L (≈ 11.6 µM)
- MIC (S. aureus 29213): 16 mg/L (≈ 46.3 µM)
- MIC (S. pyogenes C203): 8 mg/L (≈ 23.1 µM)
- pIC50 (E. coli gyrase): 4.80
- pIC50 (E. coli topoisomerase IV): 5.52
- pIC50 (relaxed plasmid pBR322): 4.72
